14 molecules from US20100267555A1, “Fungicidal mixtures II” (BASF SE, priority 2007, published 2010) can be followed below.

Read-outs that look alike come from different tables or passages of the source.

Holding throughout (type): cell-based
One assay concerns Septoria tritici. Kind of assay: Activity against leaf blotch on wheat caused by Septoria tritici in the microtiter test (Septtr). Particulars: single active compound, day 7 after inoculation.
The subject of a further assay is Phytophthora infestans. The conditions noted are these: single active compound, 7 days after inoculation.
In another assay the test system is Pyricularia oryzae. Kind of assay: microbe, parasite or virus in culture. The conditions noted are these: 7 days after inoculation; for inhibition of growth at 4 ppm: read-out: Observed efficacy, single active compound, 4 ppm; for inhibition of growth at 16 ppm: read-out: Observed efficacy, single active compound, 16 ppm; for inhibition of growth at 0.063 ppm: read-out: Observed efficacy, single active compound, 0.063 ppm; for Observed efficacy: single active compound.

For the molecule `Fc1ccc([C@]2(Cn3cncn3)O[C@H]2c2ccccc2Cl)cc1` (racemic) [Epoxiconazole, (2RS,3SR)-1-[3-(2-chlorophenyl)-2,3-epoxy-2-(4-fluorophenyl)propyl]-1H-1,2,4-triazole, reference compound], the Observed efficacy with Septoria tritici (0.063 ppm) is given as 50%.

In the assay on Phytophthora infestans (4 ppm), `O=C(OCc1cccc(C(F)(F)F)c1)[C@H](c1ccc(F)cc1F)[C@@H](O)c1cccnc1` (stereo in doubt) [I.57-RS, 3-trifluoromethylphenylmethyl 3-hydroxy-2-(2,4-difluorophenyl)-3-(3-pyridyl)propanoate] displayed an Observed efficacy of 3%. For the same molecule, in the assay on Pyricularia oryzae (Pyricularia oryzae, 168 h), the inhibition of growth at 4 ppm is 0% and the inhibition of growth at 16 ppm was found to be 9%. The molecule further returned an Observed efficacy in the assay with Septoria tritici (4 ppm) of 26%.

With `O=C(OCc1cccc(C(F)(F)F)c1)[C@H](c1cccs1)[C@@H](O)c1cccnc1` (stereo in doubt) [I.59-RS, 3-trifluoromethylphenylmethyl 3-hydroxy-2-(2-thienyl)-3-(3-pyridyl)propanoate], the results for the Observed efficacy in the assay on Phytophthora infestans (4 ppm), with Pyricularia oryzae (4 ppm) and in the assay on Septoria tritici (4 ppm) were 11%, 0% and 14%, respectively. Moreover, the inhibition of growth at 0.063 ppm in the assay with Pyricularia oryzae (Pyricularia oryzae, 168 h) turned out to be 1%. The inhibition of growth at 16 ppm in the assay with Pyricularia oryzae (Pyricularia oryzae, 168 h) is 14%.

`COC(=O)Nc1nc2ccccc2[nH]1` [Carbendazim, methyl (1H-benzoimidazol-2-yl)-carbamate, reference compound]: the inhibition of growth at 0.25 ppm in the assay on Pyricularia oryzae (Pyricularia oryzae, 168 h, read-out: Observed efficacy, single active compound, 0.25 ppm) is 19%.

For the molecule `N#Cc1c(Cl)c(Cl)c(Cl)c(C#N)c1Cl` [Chlorothalonil, 2,4,5,6-tetrachloroisophthalonitrile, reference compound], the Observed efficacy with Phytophthora infestans (0.25 ppm) came to 16%.

For the molecule `Cc1ccc(-c2c(Cl)nc(C#N)n2S(=O)(=O)N(C)C)cc1` [Cyazofamid, 4-chloro-2-cyano-N,N-dimethyl-5-(4-methylphenyl)-1H-imidazole-1-sulfonamide, reference compound], the Observed efficacy in the assay on Phytophthora infestans (0.016 ppm) is listed as 56%.

As to `Cc1cc(C2CC2)nc(Nc2ccccc2)n1` [Cyprodinil, (4-cyclopropyl-6-methylpyrimidin-2-yl)phenylamine, reference compound], the inhibition of growth at 4 ppm in the assay on Pyricularia oryzae (Pyricularia oryzae, 168 h) was found to be 71%.

Turning to `CO/N=C(/C1=NOCCO1)c1ccccc1Oc1ncnc(Oc2ccccc2Cl)c1F` [Fluoxastrobin, (E)-{2-[6-(2-chlorophenoxy)-5-fluoropyrimidin-4-yloxy]phenyl}(5,6-dihydro-1,4,2-dioxazin-3-yl)methanone O-methyloxime, reference compound], the inhibition of growth at 0.063 ppm with Pyricularia oryzae (Pyricularia oryzae, 168 h) is 57%. The molecule also showed an Observed efficacy with Septoria tritici (0.25 ppm) of 58%.

In the case of `O=C(OCc1cccc(C(F)(F)F)c1)[C@H](c1ccc(F)cc1F)[C@@H](O)c1cccnc1` [I.57-RR, 3-trifluoromethylphenylmethyl 3-hydroxy-2-(2,4-difluorophenyl)-3-(3-pyridyl)propanoate], the Observed efficacy with Phytophthora infestans (0.016 ppm) turned out to be 0%; in the assay on Septoria tritici (0.063 ppm) it was 4%.

As for `O=C(OCc1cccc(C(F)(F)F)c1)[C@H](c1cccs1)[C@@H](O)c1cccnc1` [I.59-RR, 3-trifluoromethylphenylmethyl 3-hydroxy-2-(2-thienyl)-3-(3-pyridyl)propanoate], the Observed efficacy with Phytophthora infestans (4 ppm) is recorded as 7%; with Pyricularia oryzae (16 ppm) it was 8%. The inhibition of growth at 4 ppm in the assay on Pyricularia oryzae (Pyricularia oryzae, 168 h) stood at 0%.

With `CC(C)NC(=O)N1CC(=O)N(c2cc(Cl)cc(Cl)c2)C1=O` [Iprodione, N-isopropyl-3-(3,5-dichlorophenyl)-2,4-dioxoimidazolidine-1-carboxamide, reference compound], the inhibition of growth at 4 ppm with Pyricularia oryzae (Pyricularia oryzae, 168 h) is 18%.

`Cc1ccc(C(C)NC(=O)[C@@H](NC(=O)OC(C)C)C(C)C)cc1` (stereo partly drawn) [Iprovalicarb, isopropyl [(1S)-2-methyl-1-(1-p-tolylethylcarbamoyl)propyl]carbamate, reference compound] showed an Observed efficacy in the assay with Phytophthora infestans (0.25 ppm) of 9%.

Consider `COC=C(C(=O)OC)c1ccccc1COc1cccc(C(F)(F)F)n1` [Picoxystrobin, methyl 3-methoxy-2-[2-(6-trifluoromethylpyridin-2-yloxymethyl)phenyl]acrylate, reference compound], for which the inhibition of growth at 0.063 ppm in the assay with Pyricularia oryzae (Pyricularia oryzae, 168 h) worked out at 49%.

As for `OC(Cc1ccccc1Cl)(Cn1nc[nH]c1=S)C1(Cl)CC1` (stereo not shown) [Prothioconazol, 2-[2-(1-chlorocyclopropyl)-3-(2-chlorophenyl)-2-hydroxypropyl]-2,4-dihydro-[1,2,4]triazole-3-thione, reference compound], in the assay with Pyricularia oryzae (Pyricularia oryzae, 168 h), the inhibition of growth at 4 ppm was 15%.
